What all share (experiment): relative viability (nuclei count vs DMSO), 5 days (fraction); higher = more cells survive
Compound in experiment [1]: CC1=CC=C(C=C1)C(=O)CN2C3=C(CCCC3)SC2=N [Pifithrin_alpha] + Nc1ncn([C@H]2C[C@H](O)[C@@H](CO)O2)c(=O)n1 [Decitabine] (partner 2 µM)
The essentials: (§1)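 A single step with final 0.05% Triton X-100, 1% formaldehyde and 1 ug/ml Hoechst fixed the cells and stained nuclei 5 days after treatment. Lung cancer cell lines in 1536-well plates had been treated by pin tool the day after seeding with one drug alone or a fixed anchor-drug dose plus five library-drug doses (not always all listed) in √10 steps, and nuclei were counted on 4× images. Relative viability is the ratio of nuclei in treated wells to nuclei in vehicle wells, taken as the median of duplicate plates.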

Compound in experiment [2]: CC1=CC=C(C=C1)C(=O)CN2C3=C(CCCC3)SC2=N [Pifithrin_alpha] + NC(=O)Nc1cc(-c2cccc(F)c2)sc1C(=O)N[C@H]1CCCNC1 [AZD7762] (partner 0.2 µM)
The essentials:
as §1

Compound in the experiment “Bemcentinib + Trametinib”: Nc1nc(Nc2ccc3c(c2)CC[C@@H](N2CCCC2)CC3)nn1-c1cc2c(nn1)-c1ccccc1CCC2 [Bemcentinib] + CC(=O)Nc1cccc(-n2c(=O)n(C3CC3)c(=O)c3c(Nc4ccc(I)cc4F)n(C)c(=O)c(C)c32)c1 [Trametinib] (partner 0.02 µM)
The essentials:
as §1

Compound in experiment [3]: CC1=CC=C(C=C1)C(=O)CN2C3=C(CCCC3)SC2=N [Pifithrin_alpha] + Nc1nc2[nH]cc(CCc3ccc(C(=O)N[C@@H](CCC(=O)O)C(=O)O)cc3)c2c(=O)[nH]1 [Pemetrexed] (partner 0.2 µM)
The gist of the method:
as §1

The record followed here is the supplement of paper PMC10307832.

RERF-LC-KJ: the relative viability is 0.681 in experiment [1] (first compound 1 µM); 0.621 in experiment [1] (first compound 3.162 µM); 0.562 in experiment [1] (first compound 10 µM); 0.382 in experiment [1] (first compound 31.62 µM); 0.451 in experiment [1] (first compound 100 µM); 0.628 in experiment [2] (first compound 1 µM). Besides, the relative viability in experiment [2] (first compound 3.162 µM) stood at 0.882; in experiment [2] (first compound 10 µM), 0.941; in experiment [2] (first compound 31.62 µM) it was 0.981; in experiment [2] (first compound 100 µM), 0.854; with Bemcentinib + Trametinib (first compound 0.04 µM), 0.953; with Bemcentinib + Trametinib (first compound 0.1265 µM) it was 0.968. The relative viability with Bemcentinib + Trametinib (first compound 0.4 µM) was 0.863; in the experiment with Bemcentinib + Trametinib (first compound 1.265 µM), 0.818; with Bemcentinib + Trametinib (first compound 4 µM) it was 0.96; in experiment [3] (first compound 1 µM), 0.437; in experiment [3] (first compound 3.162 µM), 0.445; in experiment [3] (first compound 10 µM), 0.507. The relative viability was 0.452 in experiment [3] (first compound 31.62 µM) and 0.396 in experiment [3] (first compound 100 µM).
Take SW 900: the relative viability in experiment [1] (first compound 1 µM) is 0.395; in experiment [1] (first compound 3.162 µM), 0.381; in experiment [1] (first compound 10 µM), 0.423; in experiment [1] (first compound 31.62 µM), 0.389; in experiment [1] (first compound 100 µM), 0.447; in experiment [2] (first compound 1 µM) it was 0.567. Further, the relative viability in experiment [2] (first compound 3.162 µM) came to 0.497; in experiment [2] (first compound 10 µM), 0.622; in experiment [2] (first compound 31.62 µM) it was 0.41; in experiment [2] (first compound 100 µM), 0.424; in the experiment with Bemcentinib + Trametinib (first compound 0.04 µM), 0.56; with Bemcentinib + Trametinib (first compound 0.1265 µM), 0.947. The relative viability came to 0.927 with Bemcentinib + Trametinib (first compound 0.4 µM); 0.953 with Bemcentinib + Trametinib (first compound 1.265 µM); 0.933 with Bemcentinib + Trametinib (first compound 4 µM); 0.493 in experiment [3] (first compound 1 µM); 0.509 in experiment [3] (first compound 3.162 µM); 0.499 in experiment [3] (first compound 10 µM). Further, the relative viability in experiment [3] (first compound 31.62 µM) worked out at 0.503; in experiment [3] (first compound 100 µM) it was 0.371.
